{
  "source": "patent US20260199324A1",
  "about": "“METHOD OF TREATING BREAST CANCER” (Arvinas Operations, Inc., priority 2022, published 2026)",
  "key": {"[1]": {"assay": "Safety and tolerability (TEAEs, clinical laboratory tests, vital signs, ECGs) in the Phase 1 drug-drug interaction study", "type": "in vivo, human", "conditions": "for number of all-causality adverse events (AEs): 24 participants", "excerpt": "This was a Phase 1, open-label, 2-period, fixed-sequence study to estimate the effect of a single oral dose of Compound A on the PK of a P-gp substrate, dabigatran etexilate (as mesylate), in healthy male participants and female participants with nonchildbearing potential.\nOn Period 1 Day 1, a standard breakfast (approximately 700 calories with a fat content of approximately 35%) was provided prior to dosing. The standard breakfast was required to be completely consumed within an approximately 20-minute period. A single dose of 75 mg dabigatran etexilate (as mesylate) (as 1 capsule of 75 mg) was administered approximately 2 hrs (120 mins) after starting the standard breakfast. To adequately remove any drug effects of dabigatran, a minimum washout period of 4 days was required after dabigatran etexilate (as mesylate) administration on Period 1 Day 1. Serial PK samples were collected up to 48 hrs after single dose administration to determine dabigatran PK parameters (total).\nOn Period 2 Day 1, a standard breakfast (approximately 700 calories with a fat content of approximately 35%) was provided prior to Compound A and dabigatran etexilate (as mesylate) dosing. The standard breakfast was required to be the same as provided in Period 1 Day 1 and was required to be completely consumed within an approximately 20-minute period. A single dose of 200 mg Compound A (as 2 tablets of 100 mg) was administered approximately 10 mins after the completion of the breakfast. A single dose of 75 mg dabigatran etexilate\n(as mesylate) (as 1 capsule of 75 mg) was administered approximately 1.5 hour (90 mins) after the start of Compound A dosing, which was approximately 2 hrs (120 mins) after the start of the breakfast. Serial PK samples were collected up to 48 hrs post dabigatran etexilate (as mesylate) dosing to determine the single dose PK parameters of Compound A and dabigatran (total) • Masking: No masking (open label) • Enrollment number: 24\nCompound A co-administered with dabigatran etexilate mesylate was the test treatment. All safety analyses were performed on the safety analysis set. Safety data were presented in tabular and/or graphical format and summarized descriptively, where appropriate in accordance with the Clinical Data Interchange Standards Consortium Standards […]."}, "P-gp": {"target": "T1, P-gp (Homo sapiens, UniProt P08183)", "T1 construct": "from tissue; host or cells: intestine of healthy human participants (in vivo)", "T1 sequence (P08183 whole entry)": "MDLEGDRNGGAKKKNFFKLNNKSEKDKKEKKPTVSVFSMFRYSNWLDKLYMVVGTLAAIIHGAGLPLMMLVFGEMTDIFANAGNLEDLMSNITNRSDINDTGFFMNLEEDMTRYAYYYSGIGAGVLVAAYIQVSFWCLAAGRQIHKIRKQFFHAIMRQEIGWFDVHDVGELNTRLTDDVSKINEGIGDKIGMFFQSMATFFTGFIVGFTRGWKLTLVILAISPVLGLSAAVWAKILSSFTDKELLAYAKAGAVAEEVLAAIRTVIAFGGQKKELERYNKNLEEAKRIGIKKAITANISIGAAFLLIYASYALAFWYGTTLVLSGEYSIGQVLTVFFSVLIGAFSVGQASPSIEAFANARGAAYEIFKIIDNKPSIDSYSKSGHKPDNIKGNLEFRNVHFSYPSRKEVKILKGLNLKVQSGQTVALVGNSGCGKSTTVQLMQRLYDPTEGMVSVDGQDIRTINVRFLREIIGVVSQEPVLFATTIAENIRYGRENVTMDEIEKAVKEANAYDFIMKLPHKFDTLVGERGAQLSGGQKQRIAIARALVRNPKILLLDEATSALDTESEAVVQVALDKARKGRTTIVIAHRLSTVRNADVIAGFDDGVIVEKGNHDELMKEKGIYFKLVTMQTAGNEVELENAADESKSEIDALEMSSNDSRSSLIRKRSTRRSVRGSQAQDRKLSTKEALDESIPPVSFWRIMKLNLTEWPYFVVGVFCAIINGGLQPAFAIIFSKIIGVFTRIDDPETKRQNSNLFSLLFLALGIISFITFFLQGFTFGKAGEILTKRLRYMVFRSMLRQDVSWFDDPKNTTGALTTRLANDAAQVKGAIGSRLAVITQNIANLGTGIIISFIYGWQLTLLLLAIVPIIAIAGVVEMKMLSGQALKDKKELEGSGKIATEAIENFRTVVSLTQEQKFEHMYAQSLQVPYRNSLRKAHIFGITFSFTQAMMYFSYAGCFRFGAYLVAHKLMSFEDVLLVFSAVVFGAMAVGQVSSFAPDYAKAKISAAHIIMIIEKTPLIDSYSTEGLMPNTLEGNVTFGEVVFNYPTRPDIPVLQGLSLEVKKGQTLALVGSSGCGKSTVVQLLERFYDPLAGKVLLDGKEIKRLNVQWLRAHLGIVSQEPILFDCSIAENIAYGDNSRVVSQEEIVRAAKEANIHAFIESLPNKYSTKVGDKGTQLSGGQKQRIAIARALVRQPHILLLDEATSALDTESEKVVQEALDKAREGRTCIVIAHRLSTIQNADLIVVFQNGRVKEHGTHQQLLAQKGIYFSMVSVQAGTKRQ", "assay": "Phase 1 open-label fixed-sequence 2-period drug-drug interaction study: effect of single oral dose of Compound A on PK of dabigatran (P-gp probe substrate)", "type": "in vivo", "conditions": "co-administration of Compound A with dabigatran in healthy participants", "excerpt": "Compound A was investigated in an interventional, Phase 1, open-label, fixed sequence, 2-period study to evaluate the effect of a single oral dose of Compound A on the PK of dabigatran in healthy participants.\nThe objective of this drug-drug interaction study was to evaluate the impact of Compound A on the PK of dabigatran etexilate (a model substrate for P-gp) in healthy adults (NCT05673889)\nAll participants in this study received one dose of dabigatran etexilate mesylate alone by mouth in Period 1. In Period 2, everyone received one dose of dabigatran etexilate mesylate by mouth approximately 90 mins after receiving one dose of Compound A by mouth. The levels of dabigatran in Period I were compared to the levels of dabigatran in Period 2. This study design was used to determine if and how Compound A affects dabigatran absorption into the body in healthy adults.\nThis was a Phase 1, open-label, 2-period, fixed-sequence study to estimate the effect of a single oral dose of Compound A on the PK of a P-gp substrate, dabigatran etexilate (as mesylate), in healthy male participants and female participants with nonchildbearing potential. […]\nNatural log transformed parameters (AUCinf [if data permitted], AUClast, and Cmax) of total dabigatran were analyzed using a mixed effect model with treatment as a fixed effect and participant as a random effect. […]"}, "[2]": {"assay": "Biopharmaceutics Classification System class", "type": "physicochemical", "conditions": "low solubility/low permeability"}, "[3]": {"assay": "Preclinical exposure of epimer Compound B compared to Compound A", "type": "in vivo", "conditions": "preclinical data; Compound B formed by interconversion (epimer) of Compound A"}, "ER": {"target": "T2, ER (Homo sapiens, UniProt P03372)", "T2 sequence (P03372 1-595)": "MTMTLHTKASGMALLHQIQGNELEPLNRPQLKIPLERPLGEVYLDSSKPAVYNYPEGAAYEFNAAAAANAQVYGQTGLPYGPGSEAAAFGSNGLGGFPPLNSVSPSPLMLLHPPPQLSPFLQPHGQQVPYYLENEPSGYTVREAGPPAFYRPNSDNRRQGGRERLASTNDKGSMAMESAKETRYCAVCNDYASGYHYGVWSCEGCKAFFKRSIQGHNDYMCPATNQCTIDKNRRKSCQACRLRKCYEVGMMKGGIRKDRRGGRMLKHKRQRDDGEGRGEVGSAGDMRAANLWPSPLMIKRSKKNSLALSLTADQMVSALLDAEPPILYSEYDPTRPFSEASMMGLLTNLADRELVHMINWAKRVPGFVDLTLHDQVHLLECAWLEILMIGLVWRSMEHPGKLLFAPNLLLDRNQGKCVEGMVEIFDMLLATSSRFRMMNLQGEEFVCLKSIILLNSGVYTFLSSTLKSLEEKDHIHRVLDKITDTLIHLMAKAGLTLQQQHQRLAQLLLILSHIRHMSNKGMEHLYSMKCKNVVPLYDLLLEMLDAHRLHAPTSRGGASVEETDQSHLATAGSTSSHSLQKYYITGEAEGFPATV", "assay": "ER degradation", "type": "cell-based"}, "[4]": {"test_system": "ER-dependent transcription", "assay": "Antagonism of ER-dependent transcription", "type": "cell-based"}, "[5]": {"conditions": "single dose dabigatran etexilate mesylate 75 mg (Treatment Period 1)"}, "[6]": {"conditions": "Compound A 200 mg and dabigatran etexilate mesylate 75 mg, not considered treatment related"}, "[7]": {"conditions": "single dose Compound A 200 mg and dabigatran etexilate mesylate 75 mg"}, "[8]": {"conditions": "single dose Compound A 200 mg and dabigatran etexilate mesylate 75 mg (Treatment Period 2)"}, "[9]": {"conditions": "dabigatran etexilate mesylate 75 mg alone"}, "[10]": {"conditions": "dabigatran etexilate mesylate 75 mg alone, considered treatment related"}, "[11]": {"conditions": "dabigatran etexilate mesylate 75 mg alone, not considered treatment related"}},
  "note": "Where a name gives a salt, the structure may show the parent alone.",
  "data": [
    {"smiles": "[H]/N=C(/N)c1ccc(NCc2nc3cc(C(=O)N(CCC(=O)O)c4ccccn4)ccc3n2C)cc1", "note": "[dabigatran, 3-[[2-[(4-carbamimidoylanilino)methyl]-1-methylbenzimidazole-5-carbonyl]-pyridin-2-ylamino]propanoic acid]", "values": [
      {"measurement": "participants with all-causality AEs (TEAEs)", "setting": "[1]; [5]", "result": "6 (25.0%) participants (%)"},
      {"measurement": "participants with treatment related AEs", "setting": "[1]; [5]", "result": "3 (12.5%) participants (%)"}
    ]},
    {"smiles": "O=C1CC[C@H](N2Cc3cc(N4CCN(CC5CCN(c6ccc([C@@H]7c8ccc(O)cc8CC[C@@H]7c7ccccc7)cc6)CC5)CC4)ccc3C2=O)C(=O)N1", "note": "[Compound A, (S)-3-(5-(4-((1-(4-((1R,2S)-6-hydroxy-2-phenyl-1,2,3,4-tetrahydronaphthalen-1-yl)phenyl)piperidin-4-yl)methyl)piperazin-1-yl)-1-oxoisoindolin-2-yl) piperidine-2,6-dione]", "values": [
      {"measurement": "P-gp inhibition (conclusion from increased dabigatran exposure)", "setting": "P-gp", "result": "P-gp inhibitor"},
      {"measurement": "participants with moderate AE of contusion", "setting": "[1]; Compound A 200 mg and dabigatran etexilate mesylate 75 mg", "result": "1 (4.2%) participants (%)"},
      {"measurement": "participants with moderate AE of headache", "setting": "[1]; Compound A 200 mg and dabigatran etexilate mesylate 75 mg, considered treatment related", "result": "1 (4.2%) participants (%)"},
      {"measurement": "participants with mild AE of contusion", "setting": "[1]; [6]", "result": "1 (4.2%) participants (%)"},
      {"measurement": "participants with mild AE of oropharyngeal pain", "setting": "[1]; [6]", "result": "1 (4.2%) participants (%)"},
      {"measurement": "participants with mild AE of rhinorrhea", "setting": "[1]; [6]", "result": "1 (4.2%) participants (%)"},
      {"measurement": "participants with mild AE of wound", "setting": "[1]; [6]", "result": "1 (4.2%) participants (%)"},
      {"measurement": "participants with Leukocyte Esterase ≥1", "setting": "[1]; [7]", "result": "1 (4.2%) participants (%)"},
      {"measurement": "participants with Monocytes/Leukocytes >1.2×ULN", "setting": "[1]; [7]", "result": "2 (8.3%) participants (%)"},
      {"measurement": "number of AEs considered treatment related", "setting": "[1]; [8]", "result": 1},
      {"measurement": "participants with all-causality AEs (TEAEs)", "setting": "[1]; [8]", "result": "6 (25.0%) participants (%)"},
      {"measurement": "number of all-causality adverse events (AEs)", "setting": "[1]; [8]", "result": 7},
      {"measurement": "participants with treatment related AEs", "setting": "[1]; single dose Compound A 200 mg and dabigatran etexilate mesylate 75 mg (Treatment Period 2), headache", "result": "1 (4.2%) participants (%)"},
      {"measurement": "Biopharmaceutics Classification System class", "setting": "[2]", "result": "Class IV"}
    ]},
    {"smiles": "O=C1CC[C@@H](N2Cc3cc(N4CCN(CC5CCN(c6ccc([C@@H]7c8ccc(O)cc8CC[C@@H]7c7ccccc7)cc6)CC5)CC4)ccc3C2=O)C(=O)N1", "note": "[Compound B]", "values": [
      {"measurement": "exposure of Compound B compared to Compound A", "setting": "[3]", "result": "< 26", "unit": "%"},
      {"measurement": "degradation of the ER", "setting": "ER", "result": "does not degrade the ER"},
      {"measurement": "antagonism of ER-dependent transcription compared to Compound A", "setting": "[4]", "result": "similar"}
    ]},
    {"smiles": "CCCCCCOC(=O)NC(=N)c1ccc(NCc2nc3cc(C(=O)N(CCC(=O)OCC)c4ccccn4)ccc3n2C)cc1", "note": "[dabigatran etexilate mesylate, β-Alanine, N-[[2-[[[4-[[[(hexyloxy)carbonyl]amino]iminomethyl]phenyl]amino]methyl]-1-methyl-1H-benzimidazol-5-yl]carbonyl]-N-2-pyridinyl-, ethyl ester]", "values": [
      {"measurement": "participants with mild AE of dry throat", "setting": "[1]; [9]", "result": "1 (4.2%) participants (%)"},
      {"measurement": "participants with mild AE of lip dry", "setting": "[1]; [9]", "result": "1 (4.2%) participants (%)"},
      {"measurement": "participants with mild AE of diarrhea", "setting": "[1]; [10]", "result": "1 (4.2%) participants (%)"},
      {"measurement": "participants with mild AE of dry skin", "setting": "[1]; [10]", "result": "1 (4.2%) participants (%)"},
      {"measurement": "participants with mild AE of hot flush", "setting": "[1]; [10]", "result": "1 (4.2%) participants (%)"},
      {"measurement": "participants with mild AE of nausea", "setting": "[1]; [10]", "result": "1 (4.2%) participants (%)"},
      {"measurement": "participants with moderate AE of hematoma", "setting": "[1]; [11]", "result": "2 (8.3%) participants (%)"},
      {"measurement": "participants with moderate AE of myalgia", "setting": "[1]; [11]", "result": "1 (4.2%) participants (%)"},
      {"measurement": "participants with Monocytes/Leukocytes >1.2× upper limit of normal (ULN)", "setting": "[1]; single dose dabigatran etexilate mesylate 75 mg", "result": "2 (8.3%) participants (%)"},
      {"measurement": "number of AEs considered treatment related", "setting": "[1]; [5]", "result": 4},
      {"measurement": "participants with all-causality AEs (TEAEs)", "setting": "[1]; [5]", "result": "6 (25.0%) participants (%)"},
      {"measurement": "participants with treatment related AEs", "setting": "[1]; [5]", "result": "3 (12.5%) participants (%)"},
      {"measurement": "number of all-causality adverse events (AEs)", "setting": "[1]; [5]", "result": 9}
    ]}
  ]
}
